Measurements from patent US11840686B2, “Modulation of prekallikrein (PKK) expression” (Ionis Pharmaceuticals, Inc., priority 2013, dated 2023).
Strand notation (5' to 3'): a small letter for the sugar, then the base; units joined by * are phosphorothioate-linked, units joined directly phosphodiester-linked; [ ] holds rarer units or linkages, { } end groups; capitals alone tell only the bases. e = 2'-O-(2-methoxyethyl) (MOE); [5mC] = 5-methylcytosine; d = 2'-deoxy (DNA)

Experiments:
human PKK mRNA [1] = experiment: Antisense inhibition of human PKK mRNA in HepaRG cells, 3,000 nM (Example 1); type: cell-based; details: PKK mRNA, HepaRG cells, 3,000 nM, electroporation, ~24 h, relative to untreated control cells
Summary of the method: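 HepaRG cells, 20,000 per well, were electroporated with 3,000 nM 5-10-5 MOE gapmer (phosphorothioate, 5-methylcytosine). After about 24 h, PKK mRNA was measured by qRT-PCR with primer probe set RTS3454 and normalised to RIBOGREEN total RNA. Values are percent inhibition versus untreated cells.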

human PKK mRNA [2] = experiment: Dose-dependent antisense inhibition of human PKK in HepaRG cells, 0.12-10.00 uM (Example 4); type: cell-based; details: electroporation, ~16 h
Procedure: Cells were plated at a density of 20,000 cells per well and transfected using electroporation with 0.12 μM, 0.37 μM, 1.11 μM, 3.33 μM, and 10.00 μM concentrations of antisense oligonucleotide. After a treatment period of approximately 16 hours, RNA was isolated from the cells and PKK mRNA levels were measured by quantitative real-time PCR. Human PKK primer probe set RTS3454 was used to measure mRNA levels. PKK mRNA levels were adjusted according to total RNA content, as measured by RIBOGREEN®. The antisense oligonucleotides were tested in a series of experiments that had similar culture conditions. Results are presented as percent inhibition of PKK, relative to untreated control cells.
The half maximal inhibitory concentration (IC50) of each oligonucleotide is also presented.

Substance | % inhibition (human PKK mRNA [1]; Table 1) [%] | percent inhibition of PKK at 0.12 μM (human PKK mRNA [2]; Table 32, 0.12 μM) [%] | percent inhibition of PKK at 0.37 μM (human PKK mRNA [2]; Table 32, 0.37 μM) [%] | percent inhibition of PKK at 1.11 μM (human PKK mRNA [2]; Table 32, 1.11 μM) [%] | percent inhibition of PKK at 3.33 μM (human PKK mRNA [2]; Table 32, 3.33 μM) [%] | percent inhibition of PKK at 10.00 μM (human PKK mRNA [2]; Table 32, 10.00 μM) [%] | IC50 (human PKK mRNA [2]; Table 32, PKK mRNA) [nM] | % inhibition (human PKK mRNA [1]; Table 2) [%] | percent inhibition of PKK at 0.12 μM (human PKK mRNA [2]; Table 33, 0.12 μM) [%] | percent inhibition of PKK at 0.37 μM (human PKK mRNA [2]; Table 33, 0.37 μM) [%] | percent inhibition of PKK at 1.11 μM (human PKK mRNA [2]; Table 33, 1.11 μM) [%] | percent inhibition of PKK at 3.33 μM (human PKK mRNA [2]; Table 33, 3.33 μM) [%] | percent inhibition of PKK at 10.00 μM (human PKK mRNA [2]; Table 33, 10.00 μM) [%] | IC50 (human PKK mRNA [2]; Table 33, PKK mRNA) [nM]
530971 (antisense eG*eG*eA*eA*e[5mC]*dT*dT*dG*dG*dT*dG*dT*dG*d[5mC]*d[5mC]*eA*e[5mC]*eT*eT*eT) [compound 530971] | 85 | 12 | 40 | 52 | 66 | 70 | 1300 | – | – | – | – | – | – | –
530988 (eT*e[5mC]*e[5mC]*eA*eA*dA*dG*dT*d[5mC]*dA*dA*d[5mC]*dT*d[5mC]*d[5mC]*e[5mC]*eG*eG*eG*eT; antisense) [compound 530988] | 76 | 0 | 25 | 54 | 86 | 78 | 900 | – | – | – | – | – | – | –
530992 (eG*eT*e[5mC]*eA*e[5mC]*dA*dT*dT*d[5mC]*dA*dA*dT*dT*d[5mC]*dT*eT*e[5mC]*eT*e[5mC]*e[5mC]; antisense) [compound 530992] | 70 | 0 | 50 | 63 | 83 | 80 | 700 | – | – | – | – | – | – | –
531002 (eG*eA*eG*e[5mC]*eT*d[5mC]*d[5mC]*d[5mC]*dT*dT*dG*dT*dG*dT*d[5mC]*e[5mC]*e[5mC]*eA*eT*eA; antisense) [compound 531002] | 85 | 6 | 28 | 58 | 82 | 86 | 900 | – | – | – | – | – | – | –
531004 (eA*eG*eA*eG*eT*dA*dA*d[5mC]*d[5mC]*dA*dG*dA*dG*d[5mC]*dT*e[5mC]*e[5mC]*e[5mC]*eT*eT; antisense) [compound 531004] | 76 | 0 | 14 | 25 | 71 | 84 | 2100 | – | – | – | – | – | – | –
531005 (e[5mC]*eT*e[5mC]*eA*eA*dA*dG*dA*dG*dT*dA*dA*d[5mC]*d[5mC]*dA*eG*eA*eG*e[5mC]*eT; antisense) [compound 531005] | 76 | 14 | 28 | 61 | 73 | 77 | 900 | – | – | – | – | – | – | –
531022 (eG*eT*eA*eA*eT*dG*dT*d[5mC]*dT*dG*dA*d[5mC]*dA*dG*dA*eT*eT*eT*eA*eA; antisense) [compound 531022] | – | 0 | 0 | 32 | 62 | 77 | 2200 | 74 | – | – | – | – | – | –
531026 (antisense eA*eT*e[5mC]*eA*eT*dG*dA*dT*dT*d[5mC]*d[5mC]*d[5mC]*dT*dT*d[5mC]*eT*eG*eA*eG*eA) [compound 531026] | – | – | – | – | – | – | – | 73 | 23 | 26 | 49 | 75 | 85 | 1000
531055 (antisense e[5mC]*e[5mC]*e[5mC]*eT*eT*d[5mC]*dT*dT*dT*dA*dT*dA*dG*d[5mC]*d[5mC]*eA*eG*e[5mC]*eA*e[5mC]) [compound 531055] | – | – | – | – | – | – | – | 68 | 3 | 28 | 64 | 76 | 81 | 900
